Patent US8329705B2, “Substituted triazolo-pyrazine compounds” (ArQule, Inc., priority 2009, dated 2012)

What was measured:
FGFR2 (N549H) = target: T1, FGFR2 (N549H) (Homo sapiens, UniProt P21802, N549H); assay: FGFR2 kinase activity assay (fluorescent ELISA); type: biochemical; conditions: 30 μM compound
T1 construct: purchased Millipore 14-742
Protocol: A fluorescent ELISA assay was developed to identify and characterize inhibitors of FGFR2 kinase. This heterogeneous assay utilized a biotinylated peptide with a tyrosine motif as a substrate and an anti-phospho-tyrosine antibody to measure phosphorylation of the substrate. The reaction was initiated by adding a test compound, 37 uM Pyk2 substrate (Midwest Biotech, cat. #MBT2383), 12.5 uM ATP (Roche, cat. #11 140 965 001), and 0.5 uM FGFR2 enzyme (Millipore, cat. #14-742) sequentially to a non-binding polypropylene V-well plate. All reagents were in assay buffer consisting of: 50 mM Tris-HCL, 0.02 mg/mL BSA, 10 mM MgCl2, 0.1 mM Na3VO4, 1 mM EGTA, […], 0.01% NP-40, 2 mM DTT, 10% Glycerol. The reaction was incubated for 60 minutes. As the reaction proceeded, FGFR2 phosphorylated tyrosines in the peptide. The reaction mixture was then moved to a blocked streptavidin coated Nunc Maxisorb plate (coated with 100 ng streptavidin from Pierce (cat #15-124) per well) allowing for the capture of the biotinylated peptide. Peptide was captured for 30 minutes at room temperature, the phosphorylation of peptide continues during this phase. The reaction was stopped by washing the Streptavidin plate 6 times with TBST. Phosphorylated peptide was detected by adding anti-phospho tyrosine antibody (purchased from Cell Signaling, cat. #9411, diluted 1:3000), unbound antibody was removed by washing 6 times with TBST. Secondary detection was performed using Alkaline Phosphatase tagged goat anti-mouse antibody (purchased from Pierce, cat. #31320, diluted 1:4000) for one hour. Unbound secondary antibody was removed by washing 6 times with TBST.
The fluorescent readout was initiated by the addition of Promega Attophos substrate (purchased from Promega; Kit catalog number: S1000, dilution=6 mg/10 mL), which when dephosphorylated by Alkaline phosphatase emitted a fluorescent signal of […] when excited by a signal […]. This reading was done on the Perkin Elmer Envision system. […] The signal was directly proportional to the activity of FGFR2 and compound inhibition of FGFR2 was monitored by a decrease in signal.

DLD-1 cancer cells = assay: MTS assay, DLD-1 cells; type: cell-based; set-up: concentration or dose not given beside the values
Protocol: (§1) Cells were maintained at 37° C., 5% CO2 in DMEM media supplemented with 1% fetal bovine serum, penicillin/streptomycin and fungizone (Invitrogen). Cells were seeded into 96-well tissue culture plates at 3000 per well and cultured at 37° C. for 18 hours. Test compounds were dissolved and diluted to 300× in DMSO then diluted 1:40 in DMEM. Cells were incubated with test compounds for 72 hours followed by incubation with tetrazolium compound (3-(4,5-dimethylthiazol-2-yl)-5-(3-carboxymethoxyphenyl)-2-(4-sulfophenyl)-2H-tetrazolium, inner salt; MTS) and the electron coupling reagent, phenazine methosulfate (PMS) for 4 hours. […] The ability of compounds to inhibit cell growth in this assay is correlated with the reduction of dehydrogenase enzyme activity found in metabolically active cells. The measurement of the absorbance of the formazan was assessed using a Victor (Perkin Elmer) microplate reader at 492 nm. The calculated IC50 value is the concentration of the test compound that causes a 50% decrease in the absorbance. Percent inhibition by representative compounds of the present invention in MDA-MB231 and DLD-1 cancer cells is shown in Table 4.

MDA-MB-231 cancer cells = assay: MTS assay, MDA-MB-231 cells; type: cell-based; set-up: concentration or dose not given beside the values
Protocol: as §1

T1 sequence (P21802 22-821 N549H): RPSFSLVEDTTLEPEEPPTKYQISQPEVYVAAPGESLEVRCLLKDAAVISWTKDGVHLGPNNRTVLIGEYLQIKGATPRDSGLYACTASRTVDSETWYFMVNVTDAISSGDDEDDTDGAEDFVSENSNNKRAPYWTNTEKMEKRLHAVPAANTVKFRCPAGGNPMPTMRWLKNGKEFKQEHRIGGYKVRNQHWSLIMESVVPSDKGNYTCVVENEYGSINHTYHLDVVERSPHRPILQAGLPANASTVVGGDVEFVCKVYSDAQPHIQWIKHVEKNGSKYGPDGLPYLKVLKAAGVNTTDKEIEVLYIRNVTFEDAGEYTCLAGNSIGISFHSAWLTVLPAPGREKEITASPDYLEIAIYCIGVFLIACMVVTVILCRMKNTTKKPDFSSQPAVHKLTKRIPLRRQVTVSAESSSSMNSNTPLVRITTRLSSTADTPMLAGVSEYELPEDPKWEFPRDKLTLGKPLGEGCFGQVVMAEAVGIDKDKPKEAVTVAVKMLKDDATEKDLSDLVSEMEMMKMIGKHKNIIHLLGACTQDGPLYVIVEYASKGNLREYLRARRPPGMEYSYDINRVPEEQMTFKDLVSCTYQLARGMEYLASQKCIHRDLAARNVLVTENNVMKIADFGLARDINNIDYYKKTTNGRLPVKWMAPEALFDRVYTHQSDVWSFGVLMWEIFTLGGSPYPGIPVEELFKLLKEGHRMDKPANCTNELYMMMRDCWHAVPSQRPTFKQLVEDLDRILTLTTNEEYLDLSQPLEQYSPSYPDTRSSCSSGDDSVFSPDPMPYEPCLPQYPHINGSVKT

SMILES | inhibition at 30 µM (FGFR2 (N549H)) | DLD-1, MTS, 72 hours (% Inhibition) (DLD-1 cancer cells) | MDA-MB-231, MTS, 72 hours (% inhibition) (MDA-MB-231 cancer cells)
COc1ccccc1CNc1nccn2c(NC(=O)OC(C)C)nnc12 [Compound 15, isopropyl {8-[(2-methoxybenzyl)amino][1,2,4]triazolo[4,3-a]pyrazin-3-yl}carbamate] | 51% | 98% | 83%
CC(C)OC(=O)Nc1nnc2c(NCc3ccc(C(C)(C)C)cc3)nccn12 [Compound 22, isopropyl {8-[(4-tert-butylbenzyl)amino][1,2,4]triazolo[4,3-a]pyrazin-3-yl}carbamate] | 100% | 98% | 99%
COc1ccccc1Nc1nccn2c(NC(=O)OC(C)C)nnc12 [Compound 39, isopropyl {8-[(2-methoxyphenyl)amino][1,2,4]triazolo[4,3-a]pyrazin-3-yl}carbamate] | 78.3% | 97% | 97%
CC(C)OC(=O)Nc1nnc2c(Nc3ccc(Br)cc3)nccn12 [Compound 52, isopropyl {8-[(4-bromophenyl)amino][1,2,4]triazolo[4,3-a]pyrazin-3-yl}carbamate] | 95.1% | 97% | 98%
CC(C)OC(=O)Nc1nnc2c(N(C)c3ccccn3)nccn12 [Compound 53, isopropyl {8-[methyl(pyridin-2-yl)amino][1,2,4]triazolo[4,3-a]pyrazin-3-yl}carbamate] | 68.1% | 96% | 99%
COc1ccccc1CCNc1nccn2c(NC(=O)OC(C)C)nnc12 [Compound 58, isopropyl (8-{[2-(2-methoxyphenyl)ethyl]amino}[1,2,4]triazolo[4,3-a]pyrazin-3-yl)carbamate] | 80.6% | 10% | 59%
CC(C)OC(=O)Nc1nnc2c(N3CCCCC3)nccn12 [Compound 59, isopropyl (8-piperidin-1-yl[1,2,4]triazolo[4,3-a]pyrazin-3-yl)carbamate] | 82.5% | 48% | 53%
CCc1ccc(CCNc2nccn3c(NC(=O)OC(C)C)nnc23)cc1 [Compound 62, isopropyl (8-{[2-(4-ethylphenyl)ethyl]amino}[1,2,4]triazolo[4,3-a]pyrazin-3-yl)carbamate] | 74.2% | 93% | 78%
CCN(c1ccccc1C)c1nccn2c(NC(=O)OC(C)C)nnc12 [Compound 63, isopropyl {8-[ethyl(2-methylphenyl)amino][1,2,4]triazolo[4,3-a]pyrazin-3-yl}carbamate] | 75.7% | 98% | 76%
CCN(c1cc(O)ccc1C)c1nccn2c(NC(=O)OC(C)C)nnc12 [Compound 64, isopropyl {8-[ethyl(5-hydroxy-2-methylphenyl)amino][1,2,4]triazolo[4,3-a]pyrazin-3-yl}carbamate] | 57.2% | 26% | 51%
CC(C)OC(=O)Nc1nnc2c(NCc3cccc(C(F)(F)F)c3)nccn12 [Compound 81, isopropyl (8-{[3-(trifluoromethyl)benzyl]amino}[1,2,4]triazolo[4,3-a]pyrazin-3-yl)carbamate] | 96.9% | 98% | 99%
Nc1nnc2c(NCCc3ccccc3)nccn12 [Compound 136, N^8-(2-phenylethyl)[1,2,4]triazolo [4,3-a]pyrazine-3,8-diamine] |  | 97% | 76%
